How the values were obtained:
[1] = Dissociation constant, pKa of the compound; type: physicochemical
[2] = Intrinsic clearance in human liver microsomes; type: ADME, microsome; conditions: read-out: CLH
[3] = Intrinsic clearance in human hepatocytes assessed per million cells; type: ADME, cell-based, Hepatocyte; conditions: read-out: CLH
[4] = Clearance in rat blood; type: ADME
[5] = Oral bioavailability in rat; type: ADME, organism-based; conditions: in vivo

Structure (SMILES)	pKa [1]	microsomal CLint [2] [µL/min/mg]	hepatocyte CLint [3] [µL/min/1e6 cells]	clearance [4] [mL/min/kg]	bioavailability [5] [%]
COC[C@@](C)(N)c1nc(-c2ccc(OC(F)(F)F)cc2)c[nH]1	7.1	–	–	–	–
CC(C)(N)c1nc(-c2ccc(OC(F)(F)F)cc2)c[nH]1	7.9	8	< 6	–	–
NC1(Cc2nc(-c3ccc(OC(F)(F)F)cc3)c[nH]2)COC1	6.4	–	–	5	49 to 52

Next, values leading:

pKa [1]	microsomal CLint [2] [µL/min/mg]	hepatocyte CLint [3] [µL/min/1e6 cells]	clearance [4] [mL/min/kg]	bioavailability [5] [%]	Structure (SMILES)
5.9	–	–	–	–	NC(CF)(CF)c1nc(-c2ccc(OC(F)(F)F)cc2)c[nH]1
6.4	–	–	–	–	C[C@](N)(CF)c1nc(-c2ccc(OC(F)(F)F)cc2)c[nH]1
